PubChem BioAssay (NCI)
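Following 48 hours of exposure in 96-well plates, responses at five concentrations were used to interpolate endpoints linearly. TGI is the concentration that stops growth completely.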

What was measured:
Test in all cases: DTP human tumour cell line panel, 48 h
[1] = system: SK-MEL-28 melanoma
[2] = system: PC-3 prostate
[3] = system: MDA-MB-435
[4] = system: OVCAR-4 ovarian
[5] = system: LOX IMVI melanoma
[6] = system: NCI-H460 lung
[7] = system: IGROV1 ovarian
[8] = system: NCI/ADR-RES ovarian
[9] = system: SK-MEL-5 melanoma
[10] = system: OVCAR-8 ovarian
[11] = system: EKVX NSCLC
[12] = system: KM12 colon
[13] = system: HCT-116 colon
[14] = system: SW-620 colon
[15] = system: MALME-3M melanoma
[16] = system: RXF 393 renal
[17] = system: HCT-15 colon
[18] = system: HOP-62 NSCLC
[19] = system: SF-295 CNS
[20] = system: DU-145 prostate

Row | Structure (SMILES) | TGI [1] [µM] | TGI [2] [µM] | TGI [3] [µM] | TGI [4] [µM] | TGI [5] [µM] | TGI [6] [µM] | TGI [7] [µM] | TGI [8] [µM] | TGI [9] [µM] | TGI [10] [µM] | TGI [11] [µM] | TGI [12] [µM] | TGI [13] [µM] | TGI [14] [µM] | TGI [15] [µM] | TGI [16] [µM] | TGI [17] [µM] | TGI [18] [µM] | TGI [19] [µM] | TGI [20] [µM]
1 | O=C1C(Cl)C2(CC(/C=C/c3ccccc3O)=NN2c2cccc(S(=O)(=O)O)c2)N1c1nc2ccccc2s1 (stereo unspecified) | 71.2 | > 100 | 31.1 | 27.4 | 24.7 | 34.6 | 31.2 | > 100 | 26.1 | 63.9 | 45.8 | 30.3 | 31 | 42.9 | 27.1 | > 100 | 44.6 | – | – | –
2 | C[C@H](NC(=O)n1c2ccccc2c2ccccc21)C(=O)O | > 100 | – | – | – | > 100 | > 100 | > 100 | – | > 100 | > 100 | > 100 | > 100 | > 100 | > 100 | > 100 | > 100 | > 100 | > 100 | > 100 | –
3 | C/C(=N\NS(=O)(=O)c1ccc(C)cc1)c1cc2ccccc2n1C | – | – | – | > 100 | > 100 | > 100 | > 100 | – | > 100 | > 100 | > 100 | > 100 | > 100 | > 100 | > 100 | – | > 100 | > 100 | > 100 | –
4 | CCOC(=O)CSc1nnc(CSc2nc(-c3ccccc3)c(-c3ccccc3)[nH]2)n1-c1ccccc1 | > 100 | 43.8 | – | 48.3 | > 100 | > 100 | > 100 | > 100 | > 100 | 35.3 | > 100 | > 100 | > 100 | > 100 | > 100 | 39.5 | > 100 | > 100 | > 100 | 30.1
5 | CC(Oc1ccc(OCC2CCCCC2)cc1)C(=O)NCCO (stereo unspecified) | > 100 | – | – | > 100 | > 100 | > 100 | > 100 | – | > 100 | > 100 | – | > 100 | > 100 | – | > 100 | > 100 | > 100 | – | > 100 | –
6 | CCC/C(Cl)=N\OC(=O)Nc1cccc(C(F)(F)F)c1 | 37.6 | 31.6 | – | 38.5 | 19.7 | 35.8 | 32.4 | > 59.4 | 28.9 | 32.3 | 31.4 | 33.3 | 34.9 | 8.66 | 26.4 | 33.8 | 18.4 | > 100 | 19.5 | 17.8
7 | Cc1cc2oc(-c3ccccc3)c(C)c(=O)c2c2c1OC(C)(C)S2 | > 100 | – | – | > 100 | > 100 | > 100 | > 100 | – | > 100 | > 100 | > 100 | > 100 | > 100 | > 100 | > 100 | > 100 | > 100 | > 100 | > 100 | –
8 | CSc1cc(Br)ccc1-n1c(C(=O)c2ccccc2)c(SC)n(-c2ccccc2)c1=O | > 100 | > 100 | – | > 100 | > 100 | > 100 | > 100 | > 100 | > 100 | > 100 | > 100 | > 100 | > 100 | > 100 | – | – | > 100 | > 100 | > 100 | –
9 | CC1=NN2C(c3ccc(C)cc3)=CSC2=NC(C)(C)C1 | > 100 | – | – | > 100 | > 100 | > 100 | > 100 | – | > 100 | > 100 | > 100 | > 100 | > 100 | > 100 | > 100 | > 100 | > 100 | > 100 | > 100 | –
10 | COc1ccc(N2C(=O)c3c(c4[nH]c5ccc(OC)cc5c4c4ccc(C(C)(C)C)cc34)C2=O)cc1 | > 100 | – | – | > 100 | – | > 100 | > 100 | – | > 100 | > 100 | > 100 | > 100 | > 100 | – | > 100 | – | > 100 | > 100 | > 100 | –
11 | COC(=O)C1=CC2CC1C(S(=O)(=O)c1ccccc1)C2S(=O)(=O)c1ccccc1 (stereo unspecified) | 30.4 | – | – | 39.9 | 27.1 | 51.5 | 98.9 | – | 33.2 | 38.5 | – | – | 28.7 | 21 | 23.5 | – | 26.8 | > 100 | 53.8 | –
